From US20150025085A1, “Iron Chelators And Uses Thereof” (Varinel Inc., priority 2012, published 2015)
Like-named read-outs stand apart in the source and are kept apart here.

Key:
bacterial infections = conditions: described in PCT/US2012/023377 (WO 2012/106364); cited from earlier work
[1] = prior publications (WO 00/74664; WO 2004/041151); cited from earlier work
6-OHDA lesioned rats = conditions: cited from earlier work; for activity (neuroprotection) against 6-OHDA in an animal model of Parkinson's disease: prior publications, Ben Shachar et al. 2004
[2] = test system: lactacystin-lesioned mice; conditions: 5 mg/kg once a day i.p., 7 days before or after lactacystin microinjection; Zhu et al. 2007; cited from earlier work
[3] = test system: clinical isolates of bacterial strains of A. baumannii; experiment: MIC by CLSI microdilution in CAMHB media; format: cell-based; conditions: Acinetobacter baumannii, 24 h
Method: (§1) The minimal inhibitory concentration (MIC) of compound 4 was determined against standard strains of MDR bacteria and clinical isolates according to the guidelines of the Clinical and Laboratory Standards Institute (CLSI).
(§2) Individual MICs were determined following the microdilution method recommended by CLSI in cationic-adjusted Mueller-Hinton Broth (CAMHB), or M9 media. The MIC was defined as the lowest drug concentration that caused 100% inhibition of visible bacterial growth after 24 hours incubation. Tests were performed in triplicate. MIC of Compound 4 were determined for nosocomial ESKAPE pathogens (Enterococcus faecium, Staphylococcus aureus, Klebsiella pneumoniae, Acinetobacter baumannii, Pseudomonas aeruginosa, and Enterobacter species).
(§3) Tables l and 2 show the MIC of compound 4 determined in two different media for clinical isolates of bacterial strains of A. baumannii (AB) obtained from the Multidrug-resistant Organism Repository & Surveillance Network, USA.

[4] = test system: clinical isolates of bacterial strains of A. baumannii; experiment: MIC by CLSI microdilution in RPMI 1640 (low iron) media; format: cell-based, Acinetobacter baumannii; set-up: key to MIC of compound 4: NG = no growth; conditions: for MIC: Acinetobacter baumannii
Method: as §1
as §2, with “Individual MICs were determined following the microdilution method recommended by CLSI in cationic-adjusted Mueller-Hinton Broth (CAMHB), or M9 media.” left out
as §3

A. baumannii strain 5711 = experiment: Growth curves (OD600) in CAMHB medium; format: cell-based, Acinetobacter baumannii; conditions: various concentrations, dose-responsive
Text: (§4) It should be noted that the inhibition occurred in a dose-responsive manner.

[5] = Stability in aqueous solution; format: physicochemical
Text: as §4

[6] = rats, Ben Shachar et al., Neuropharmacology 46 (2004) 254-263
[7] = strain AB3638, read-out: MIC of compound 4
[8] = strain AB3785, read-out: MIC of compound 4
[9] = strain AB3806, read-out: MIC of compound 4
[10] = strain AB3917, read-out: MIC of compound 4
[11] = strain AB4025, read-out: MIC of compound 4
[12] = strain AB4026, read-out: MIC of compound 4
[13] = strain AB4027, read-out: MIC of compound 4
[14] = strain AB4052, read-out: MIC of compound 4
[15] = strain AB4269, read-out: MIC of compound 4
[16] = strain AB4448, read-out: MIC of compound 4
[17] = strain AB4456, read-out: MIC of compound 4
[18] = strain AB4490, read-out: MIC of compound 4
[19] = strain AB4498, read-out: MIC of compound 4
[20] = strain AB4795, read-out: MIC of compound 4
[21] = strain AB4857, read-out: MIC of compound 4
[22] = strain AB4878, read-out: MIC of compound 4
[23] = strain AB4932, read-out: MIC of compound 4
[24] = strain AB4957, read-out: MIC of compound 4
[25] = strain AB4991, read-out: MIC of compound 4
[26] = strain AB5001, read-out: MIC of compound 4
[27] = strain AB5075, read-out: MIC of compound 4
[28] = strain AB5197, read-out: MIC of compound 4
[29] = strain AB5256, read-out: MIC of compound 4
[30] = strain AB5674, read-out: MIC of compound 4
[31] = strain AB5711, read-out: MIC of compound 4

SMILES: OCCN1CCN(Cc2ccc(O)c3ncccc23)CC1 [VK28, 5-[4-(2-hydroxyethyl)piperazin-1-ylmethyl]-8-hydroxyquinoline]
- antibacterial activity (bacterial infections): antibacterial activity
- ability to cross the BBB [1]: able to cross the BBB
- activity (neuroprotection) against 6-OHDA in an animal model of Parkinson's disease (6-OHDA lesioned rats): active
- activity (neuroprotection) against 6-OHDA in an animal model of Parkinson's disease (6-OHDA lesioned rats; listed as Vk-28): neuroprotection
- basal striatal tissue monoamine concentrations (6-OHDA lesioned rats; [6]): no effect
- striatal 5-HT, 5-HIAA and NE concentrations (6-OHDA lesioned rats; [6]): not be affected
- behavioral performances [2]: significantly improved
- lactacystin-induced DA neuron loss in SN [2]: attenuated
- lactacystin-induced iron accumulation in SN [2]: attenuated
- lactacystin-induced microglial activation in SN [2]: attenuated
- lactacystin-induced proteasomal inhibition in SN [2]: attenuated

SMILES: C#CCN(C)Cc1ccc(O)c2ncccc12 [M30]
- ability to cross the BBB [1]: able to cross the BBB
- activity (neuroprotection) against 6-OHDA in an animal model of Parkinson's disease (6-OHDA lesioned rats): active

SMILES: OCCN1CCN(CCc2ccc(O)c3ncccc23)CC1 [Compound 4, 5-(2-(4-(2-hydroxyethyl)piperazin-1-yl)ethyl)-8-quinolinol]
- MIC ([3]; strain AB967, read-out: MIC of compound 4): 500 µg/mL
- MIC ([3]; strain AB2828, read-out: MIC of compound 4): 500 µg/mL
- MIC ([3]; strain AB3340, read-out: MIC of compound 4): 500 µg/mL
- MIC ([3]; strain AB3560, read-out: MIC of compound 4): 500 µg/mL
- MIC [3, 7]: 500 µg/mL
- MIC [3, 8]: 500 µg/mL
- MIC [3, 9]: 1000 µg/mL
- MIC [3, 10]: 500 µg/mL
- MIC ([3]; strain AB3927, read-out: MIC of compound 4): 500 µg/mL
- MIC [3, 11]: 500 µg/mL
- MIC [3, 12]: 500 µg/mL
- MIC [3, 13]: 500 µg/mL
- MIC [3, 14]: 1000 µg/mL
- MIC [3, 15]: 500 µg/mL
- MIC [3, 16]: 500 µg/mL
- MIC [3, 17]: 500 µg/mL
- MIC [3, 18]: 500 µg/mL
- MIC [3, 19]: 500 µg/mL
- MIC [3, 20]: 500 µg/mL
- MIC [3, 21]: 500 µg/mL
- MIC [3, 22]: 500 µg/mL
- MIC [3, 23]: 500 µg/mL
- MIC [3, 24]: 500 µg/mL
- MIC [3, 25]: 500 µg/mL
- MIC [3, 26]: 500 µg/mL
- MIC [3, 27]: 500 µg/mL
- MIC [3, 28]: 500 µg/mL
- MIC [3, 29]: 500 µg/mL
- MIC [3, 30]: 500 µg/mL
- MIC [3, 31]: 500 µg/mL
- MIC [4, 7]: 64 µg/mL
- MIC [4, 8]: 32 µg/mL
- MIC [4, 9]: 32 µg/mL
- MIC [4, 10]: 32 µg/mL
- MIC [4, 11]: 32 µg/mL
- MIC [4, 12]: 32 µg/mL
- MIC [4, 13]: 32 µg/mL
- MIC [4, 14]: 64 µg/mL
- MIC [4, 15]: 32 µg/mL
- MIC [4, 16]: 64 µg/mL
- MIC [4, 17]: 32 µg/mL
- MIC [4, 18]: 32 µg/mL
- MIC [4, 19]: 64 µg/mL
- MIC [4, 20]: 32 µg/mL
- MIC [4, 21]: 64 µg/mL
- MIC [4, 22]: 64 µg/mL
- MIC [4, 23]: 125 µg/mL
- MIC [4, 24]: 125 µg/mL
- MIC [4, 25]: 8 µg/mL
- MIC [4, 26]: 32 µg/mL
- MIC [4, 27]: 64 µg/mL
- MIC [4, 28]: 32 µg/mL
- MIC [4, 29]: 125 µg/mL
- MIC [4, 30]: 32 µg/mL
- MIC [4, 31]: 64 µg/mL
- MIC of compound 4 ([4]; strain AB967): NG
- MIC of compound 4 ([4]; strain AB2828): NG
- MIC of compound 4 ([4]; strain AB3340): NG
- MIC of compound 4 ([4]; strain AB3560): NG
- MIC of compound 4 ([4]; strain AB3927): NG
- OD600 in growth curves (inhibition of growth) (A. baumannii strain 5711): dramatically reduced
- stability in aqueous solution [5]: highly stable
- antibacterial activity (bacterial infections): antibacterial activity
